Test results: US20250027930A1, “SMALL MOLECULES FOR REPROGRAMING ANTI-TUMOR IMMUNITY OF T CELLS” (THE SCRIPPS RESEARCH INSTITUTE, priority 2021, published 2025)

Assays:
OT-I splenocytes = assay: OT-I splenocyte culture with purine/pyrimidine pathway compounds; type: cell-based, mouse
Description: We therefore tested if purine and pyrimidine nucleotides have similar effects as N-Acetylneuraminic acid to help maintain less differentiated phenotypes of T cells during expansion. OT-I splenocytes were cultured with 500 nM […] peptide (OVA257-264) for three days at initial cell density of 1×10^6/mL to activate and expand the CD8+ T cell population. Different concentrations of the products or intermediates in purine or pyrimidine de novo synthesis pathways were added on day 3. The tested compounds include, e.g., guanosine, deoxyguanosine, adenosine, deoxyadenosine, inosine, xanthosine, orotidine, uridine, cytidine, deoxycytidine, thymidine, deoxythymidine, 5-Aminoimidazole-4-carboxamide ribonucleotide (AICAR), orotate, and dihydroorotate. The phenotype of expanded T cells were analyzed on day 5.

OT-1 cells [1] = assay: OT-1 cells treated with K+ or p38i; type: cell-based, mouse
Text: We also tested two small molecules (KCl and p38i) reported in papers. (Science 2019, 363, (6434); Cancer Cell 2020, 37, (6), 818-833 e9).

P14 cells = assay: P14 splenocyte in vitro activation, re-stimulation and expansion; type: cell-based, mouse; settings: for Fold of proliferation, Normalized to W/O: P14 cells
P14 CD8+ T cells = type: in vivo, mouse; settings: 14 dpi LCMV-Cl13; cells treated in vitro, vs untreated
OT-1 cells [2] = assay: OT-I-Tcf7GFP splenocyte screen: proliferation and Tim3−TCF-1+ ratio; type: cell-based, mouse; settings: Day7; for Tim3^−TCF-1^+ ratio of CD8^+ T cells (%): w/o 2.6
Description: Cell number was recorded on day 3 and day 7. On day 7, cells were stained with anti-CD8a (PerCP-Cy5.5) and anti-Tim3 (BV421) antibodies for flow cytometry or plate reader analysis.
Because TCF1 expression positively correlates with T cell stemness, the greater signal of EGFP a T cell expresses, the less differentiated the T cell is. Furthermore, if the compound also facilitates T cells proliferation, there would be more T cells per well in comparison to the untreated control. Therefore, a compound that not only maintains TCF-1 expression but also facilitates T cell growth would produce the strongest green fluorescence intensity. […] GlcA stands for glucuronic acid.

B16-OVA tumor = type: in vivo, mouse; settings: adoptive transfer of sugar-treated OT-1 T cells; vs untreated T cells
Description: Naïve splenocytes from OT-1 mice were stimulated in vitro with OVA257-264 (500 nM) and IL-2 (60 IU/mL) in the presence or absence of an added compound for 3 days at a density of 1 million/mL (100 uL/well in 96/well plate), then expanded for 4 days. On day 7, PD-1, Tim3 and TCF-1 expressions were assessed by flow cytometry by staining cells with anti-CD8a (PerCP-Cy5.5), anti-Tim3 (BV421) and anti-TCF-1 (AF488) antibodies. For adoptive transfer, 0.6M B16-OVA cells (6×10^5) were inoculated subcutaneously 3 to 5 days before transfer in C57BL/6. On the day of adoptive transfer, mice were irradiated with 5 Gy X-ray, randomized according to tumor size, and intravenously injected with 0.2-0.3M of CD8+OT-1 T cells (2×10^5) expanded under different conditions, followed by administration of 50000 IU IL-2 every 12 h for four days. In the control group, mice were injected with cell-free vehicle only. For assessment of adoptive transfer of OT-1 CD8+ T cells activated and expanded by contacting the cells with fructose, on day 9 after transfer, anti-PD-1 (100 ug/mouse) was administered to the mice that had received T cell transfer. For assessment of adoptive transfer of OT-1 CD8+ T cells activated and expanded by contacting cells with Neu5Ac, on day 14 and day 21 after transfer, anti-PD-1 (100 ug/mouse) was administered to the mice that had received T cell transfer. The tumor growth was monitored every 3 to 4 days by measuring tumor size. Percent survival was also monitored and recorded within a period of 40 days post treatment. To evaluate tumor infiltrating OT-1 T cells, 0.6M B16-OVA cells (6×10^5) were inoculated subcutaneously 3 to 5 days before transfer in C57BL/6. On the day of adoptive transfer, mice were irradiated with 5 Gy X-ray, randomized according to tumor size, and intravenously injected with 0.2-0.3M of CD8+OT-1 T cells (2×10^5) expanded under different conditions, followed by administration of 50000 IU IL-2 every 12 h for four days. Tumors were then isolated and assessed for percentage of OT-I T cells from the total CD8+ T cells and OT-1 T cell number per gram of tumor tissue. To evaluate apoptosis, Naïve OT-1 splenocytes were stimulated by OVA257-264 (500 nM) without IL-2 in the presence of absence of sugars for 5 days followed by using Annexin V Apoptosis detection kit (Biolegend). […] To evaluate other cellular characteristics, naïve OT-1 splenocytes were stimulated by OVA257-264 (500 nM) with IL-2 (60 IU/mL) in the presence or absence of sugars for 7 or 8 days. On day 7 or 8 cells were taken and analyzed by assessment of ROS, NADPH/NADP+ ratio, and GSH/GSSG ratio.

OT-1 CD8+ T cells = assay: OT-1 splenocyte activation and expansion, day 7 flow cytometry; type: cell-based, mouse; settings: OT-1 cells day 7; compared with fructose or sucrose
Description: Naïve splenocytes from OT-1 mice were stimulated in vitro with OVA257-264 (500 nM) and IL-2 (60 IU/mL) in the presence or absence of an added compound for 3 days at a density of 1 million/mL (100 uL/well in 96/well plate), then expanded for 4 days. On day 7, PD-1, Tim3 and TCF-1 expressions were assessed by flow cytometry by staining cells with anti-CD8a (PerCP-Cy5.5), anti-Tim3 (BV421) and anti-TCF-1 (AF488) antibodies. For adoptive transfer, 0.6M B16-OVA cells (6×10^5) were inoculated subcutaneously 3 to 5 days before transfer in C57BL/6. On the day of adoptive transfer, mice were irradiated with 5 Gy X-ray, randomized according to tumor size, and intravenously injected with 0.2-0.3M of CD8+OT-1 T cells (2×10^5) expanded under different conditions, followed by administration of 50000 IU IL-2 every 12 h for four days. In the control group, mice were injected with cell-free vehicle only. For assessment of adoptive transfer of OT-1 CD8+ T cells activated and expanded by contacting the cells with fructose, on day 9 after transfer, anti-PD-1 (100 ug/mouse) was administered to the mice that had received T cell transfer. For assessment of adoptive transfer of OT-1 CD8+ T cells activated and expanded by contacting cells with Neu5Ac, on day 14 and day 21 after transfer, anti-PD-1 (100 ug/mouse) was administered to the mice that had received T cell transfer. The tumor growth was monitored every 3 to 4 days by measuring tumor size. Percent survival was also monitored and recorded within a period of 40 days post treatment. To evaluate tumor infiltrating OT-1 T cells, 0.6M B16-OVA cells (6×10^5) were inoculated subcutaneously 3 to 5 days before transfer in C57BL/6. […] Tumors were then isolated and assessed for percentage of OT-I T cells from the total CD8+ T cells and OT-1 T cell number per gram of tumor tissue. […] On day 7 or 8 cells were taken and analyzed by assessment of ROS, NADPH/NADP+ ratio, and GSH/GSSG ratio.

N#Cc1cc(Nc2ncc3c(n2)CCCCC3=O)cs1 [Inhibitor G6PDi-1, reference compound]
cell proliferation (OT-I splenocytes; added on day 3, analyzed day 5): without significant impact on cell proliferation
increase of the proportion of Tim3−TCF1+ T cells by a factor (OT-I splenocytes; added on day 3, analyzed day 5): 1.5

[Cl-].[K+] [K^+, KCl]
Tim3−TCF-1+ ratio of OT-1 cells (in words) (OT-1 cells [1]): increased
proliferation of OT-1 cells (in words) (OT-1 cells [1]): slightly inhibit
Proliferation fold, Normalized to W/O (OT-1 cells [1]; Day 7, 40 mM, OT-1 cells): 0.87 fold
Tim3^−TCF-1^+ ratio of CD8^+ T cells (%) (OT-1 cells [1]; Day 7, 40 mM, W/O 9.5): 80.7%
slowed down T cell proliferation (P14 cells; compared to untreated T cells): 10-20%

OC[C@H]1O[C@@H](O[C@H]2[C@H](O)[C@@H](O)C(O)O[C@@H]2CO)[C@H](O)[C@@H](O)[C@H]1O (some centres unmarked) [Lactose, lactose]
percentages and total numbers of expanded virus-specific P14 CD8+ T cells in the spleen and liver (P14 CD8+ T cells): significantly higher
Fold of proliferation, Normalized to W/O (P14 cells; Day6, 60 mM): 1.87 fold
Tim3^−TCF-1^+ ratio of CD8^+ T cells (%) (P14 cells; Day6, 60 mM, w/o 55.0): 79.4%
Fold of proliferation, Normalized to W/O (P14 cells; Day9, 60 mM): 1.76 fold
Tim3^−TCF-1^+ ratio of CD8^+ T cells (%) (P14 cells; Day9, 60 mM, w/o 3.5): 23.7%
Tim3^−TCF-1^+ ratio of CD8^+ T cells (%) (OT-1 cells [2]; 60 mM): 25.6%
activity at 60000 µM (OT-1 cells [2]; Mus musculus, Splenocyte, 168 h, 60 mM, OT-1 cells, read-out: Proliferation fold, Normalized to W/O): 63%
capabilities to control tumor growth (B16-OVA tumor): significantly better
percentage of Tim3−TCF-1+ CD8+ T cells (in words) (OT-1 CD8+ T cells): increased the percentage of Tim3−TCF-1+ CD8+ T cells but at a lower level

CCN(c1cc(-c2ccc(CN3CCOCC3)cc2)cc(C(=O)NCc2c(C)cc(C)[nH]c2=O)c1C)C1CCOCC1 [Taz, Tazemetostat]
cell survival when added on day 0 together with OVA257-264 peptide (OT-I CD8 T cells): all cells were found dead
fold increase in progenitor exhausted cells (OT-I CD8 T cells; day 7, Taz (3-7), 400 nM): 2.5-3.5 fold
progenitor exhausted cells (Tim3^−TCF-1^+) (OT-I CD8 T cells; day 7, Taz (3-7), 400 nM, without Taz 8.47%): 27.7%

OC[C@H]1O[C@H](O[C@H]2O[C@H](CO)[C@@H](O)[C@H](O)[C@H]2O)[C@H](O)[C@@H](O)[C@@H]1O [Trehalose, trehalose]
Fold of proliferation, Normalized to W/O (P14 cells; Day6, 80 mM): 1.42 fold
Tim3^−TCF-1^+ ratio of CD8^+ T cells (%) (P14 cells; Day6, 80 mM, w/o 55.0): 83.2%
Fold of proliferation, Normalized to W/O (P14 cells; Day9, 80 mM): 1.47 fold
Tim3^−TCF-1^+ ratio of CD8^+ T cells (%) (P14 cells; Day9, 80 mM, w/o 3.5): 34.6%
Tim3^−TCF-1^+ ratio of CD8^+ T cells (%) (OT-1 cells [2]; 80 mM): 35.4%
activity at 80000 µM (OT-1 cells [2]; Mus musculus, Splenocyte, 168 h, 80 mM, OT-1 cells, read-out: Proliferation fold, Normalized to W/O): 84%

Nc1nc2c(ncn2[C@@H]2O[C@H](CO)[C@@H](O)[C@H]2O)c(=O)[nH]1 [guanosine]
cell proliferation (OT-I splenocytes; added together with N-Acetylneuraminic acid on day 3, analyzed day 5): without significant impact on cell proliferation
